The results in this text go back to patent US9493478B2, “Fused ring compound containing furan or salt thereof and pharmaceutical composition comprising same” (YUHAN CORPORATION, priority 2012, dated 2016).

Bounds are passed on as bounds.

What all share (assay type): biochemical
One assay concerns the target PI3Kδ (p110δ/p85α)(h) (Homo sapiens, UniProt O00329). Kind of assay: Assay for phosphatidylinositol 3-kinase delta (PI3Kδ) activity, PI3K-HTRF kit. As to conditions: TR-FRET; enzyme 0.725 μg/ml, 10 μM PIP2, 10 μM ATP. The procedure: [The source words this procedure for another target and says it was used here with some conditions changed.] (§1) The compounds of the present invention were assayed for the activity of phosphatidylinositol 3-kinase gamma (PI3Kγ) by using a PI3K enzyme-homogenous time resolved fluorescence (PI3K-HTRF) kit, which is available from Upstate (Millipore Co, Billerica, Mass., USA).
(§2) Three kinds of buffer solutions including a phosphorylation reaction solution (a reaction buffer containing 40 mM MgCl2 which is available from Upstate was diluted 4 times and added with 5 mM DTT), a stop solution (STOP A and B solutions which are available from Upstate were mixed at a ratio of 3:1) and a fluorescence detection solution (Detection solutions A, B and C which are available from Upstate were mixed at a ratio of 1:1:18) were prepared. 1 mM of PIP2 substrate (phosphatidylinositol 4,5 biphosphate; Upstate), PI3Kγ (#14-558; Upstate) enzyme and 10 mM ATP (Sigma Aldrich Co., St. Louis, Mo., USA) were prepared. Each of PI3Kγ, 1 mM PIP2 and 10 mM ATP was diluted to 2.9 μg/ml (final reaction concentration: 1.45 μg/ml), 20 μM (final reaction concentration: 10 μM) and 40 μM (final reaction concentration: 10 μM), respectively. The buffer solution used for dilution and preparation process was the phosphorylation reaction solution. The stop solution was used for the termination of phosphorylation reaction, and the fluorescence detection solution was used for the detection of time-resolved fluorescence signals.
(§3) Each test sample was transferred to a 384 well low flange white flat bottom microplate (#3572, Corning Life Sciences, Lowell, Mass., USA) by using a multi 8-channel (Pipetman Neo multi 8×20, Gilson, Middleton, Wis., USA) to make a final phosphorylation reaction volume of 20 μl per each well. For the negative control, 5 μl of 14.4% DMSO and 10 μl of PIP2 substration solution were used, and 5 μl of 14.4% DMSO and 10 μl of PIP2/PI3Kγ mixed solution were used as the positive control. For the test group, 5 μl of a solution prepared by dissolving the compound obtained in Example in DMSO and 10 μl of PIP2/PI3Kγ mixed solution were used. Before the initiation of the phosphorylation reaction, sample compounds were pretreated with the enzyme for approximately 10 minutes, and then the phosphorylation reaction was induced by adding 5 μl of ATP. Since each of the test compound and ATP takes up 25% of the total volume, and PIP2 and PI3Kγ take up 50% of the total volume during the reaction, each solution was concentrated 4 and 2 times, respectively, before mixing the solutions. Subsequently, the test sample was gently shook for 3 minutes and subjected to a phosphorylation reaction for 90 minutes at room temperature, which was then added with 5 μl of the stop solution to terminate the phosphorylation reaction. In order to induce a time-resolved fluorescence reaction, 5 μl of the fluorescence detection solution was added to the sample. The fluorescence detection solution contains biotin-phosphatidylinositol 3,4,5-triphosphate (PIP3), streptavidin-labeled Allopycocyanin (APC) and europium-labeled Pleckstrin homology domain (the PIP3 binds to PH domain), and the time-resolved fluorescence reaction is induced by a series of reaction of PH domain and PIP3, and biotin and streptavidin. The sample was left to stand for 6 hours at room temperature, and the time-resolved fluorescence resonance energy transfer (TR-FRET) rate was measured (emission wavelength: 665 nm, 620 nm, excitation wavelength: 340 nm) by using a Flexstation3 Micro plate reader (Molecular Devices, USA). TR-FRET Rate and TR-Inhibition Rate were calculated based on Equations 1 and 2 below, and the results are expressed in IC50, which is the concentration of a compound that inhibits 50% of PI3Kγ activity in vitro. TR-FRET Rate=(665 nm emission wavelength/620 nm emission wavelength)×10000 <Equation 1> TR-FRET Inhibition Rate=[(TR-FRET Rate of Sample−TR-FRET Rate of Negative Control)/(TR-FRET Rate of Positive Control−TR-FRET Rate of Negative Control)]×100 <Equation 2> […]

For a further assay, the target named is PI3Kγ (p120γ)(h) (Homo sapiens, UniProt P48736). The experiment in a line: Assay for phosphatidylinositol 3-kinase gamma (PI3Kγ) activity, PI3K-HTRF kit. As to conditions: TR-FRET; enzyme 1.45 μg/ml, 10 μM PIP2, 10 μM ATP. The protocol:
as §1, §2
(§4) Each test sample was transferred to a 384 well low flange white flat bottom microplate (#3572, Corning Life Sciences, Lowell, Mass., USA) by using a multi 8-channel (Pipetman Neo multi 8×20, Gilson, Middleton, Wis., USA) to make a final phosphorylation reaction volume of 20 μl per each well. For the negative control, 5 μl of 14.4% DMSO and 10 μl of PIP2 substration solution were used, and 5 μl of 14.4% DMSO and 10 μl of PIP2/PI3Kγ mixed solution were used as the positive control. For the test group, 5 μl of a solution prepared by dissolving the compound obtained in Example in DMSO and 10 μl of PIP2/PI3Kγ mixed solution were used. Before the initiation of the phosphorylation reaction, sample compounds were pretreated with the enzyme for approximately 10 minutes, and then the phosphorylation reaction was induced by adding 5 μl of ATP. Since each of the test compound and ATP takes up 25% of the total volume, and PIP2 and PI3Kγ take up 50% of the total volume during the reaction, each solution was concentrated 4 and 2 times, respectively, before mixing the solutions. Subsequently, the test sample was gently shook for 3 minutes and subjected to a phosphorylation reaction for 90 minutes at room temperature, which was then added with 5 μl of the stop solution to terminate the phosphorylation reaction. In order to induce a time-resolved fluorescence reaction, 5 μl of the fluorescence detection solution was added to the sample. The fluorescence detection solution contains biotin-phosphatidylinositol 3,4,5-triphosphate (PIP3), streptavidin-labeled Allopycocyanin (APC) and europium-labeled Pleckstrin homology domain (the PIP3 binds to PH domain), and the time-resolved fluorescence reaction is induced by a series of reaction of PH domain and PIP3, and biotin and streptavidin. The sample was left to stand for 6 hours at room temperature, and the time-resolved fluorescence resonance energy transfer (TR-FRET) rate was measured (emission wavelength: 665 nm, 620 nm, excitation wavelength: 340 nm) by using a Flexstation3 Micro plate reader (Molecular Devices, USA). TR-FRET Rate and TR-Inhibition Rate were calculated based on Equations 1 and 2 below, and the results are expressed in IC50, which is the concentration of a compound that inhibits 50% of PI3Kγ activity in vitro. TR-FRET Rate=(665 nm emission wavelength/620 nm emission wavelength)×10000 <Equation 1> TR-FRET Inhibition Rate=[(TR-FRET Rate of Sample−TR-FRET Rate of Negative Control)/(TR-FRET Rate of Positive Control−TR-FRET Rate of Negative Control)]×100 <Equation 2>
On the technique in general: TR-FRET usually uses a lanthanide donor and a delayed reading to cut background.

The target in another assay is PI3Kα (p110α/p85α)(h) (Homo sapiens, UniProt P42336). Kind of assay: Assay for phosphatidylinositol 3-kinase alpha (PI3Kα) activity, PI3K-HTRF kit. As to conditions: TR-FRET; enzyme 0.3625 μg/ml, 10 μM PIP2, 10 μM ATP. The procedure:
[The source words this procedure for another target and says it was used here with some conditions changed.] as §1, §2, §4

The target of another assay is PI3K β (p110β/p85α)(h) (Homo sapiens, UniProt P42338). The experiment in a line: Assay for phosphatidylinositol 3-kinase beta (PI3Kβ) activity, PI3K-HTRF kit. As to conditions: TR-FRET; enzyme 0.725 μg/ml, 10 μM PIP2, 10 μM ATP. The protocol:
[The source words this procedure for another target and says it was used here with some conditions changed.] as §1, §2, §3

PI3Kδ (p110δ/p85α)(h), sequence (O00329 whole entry): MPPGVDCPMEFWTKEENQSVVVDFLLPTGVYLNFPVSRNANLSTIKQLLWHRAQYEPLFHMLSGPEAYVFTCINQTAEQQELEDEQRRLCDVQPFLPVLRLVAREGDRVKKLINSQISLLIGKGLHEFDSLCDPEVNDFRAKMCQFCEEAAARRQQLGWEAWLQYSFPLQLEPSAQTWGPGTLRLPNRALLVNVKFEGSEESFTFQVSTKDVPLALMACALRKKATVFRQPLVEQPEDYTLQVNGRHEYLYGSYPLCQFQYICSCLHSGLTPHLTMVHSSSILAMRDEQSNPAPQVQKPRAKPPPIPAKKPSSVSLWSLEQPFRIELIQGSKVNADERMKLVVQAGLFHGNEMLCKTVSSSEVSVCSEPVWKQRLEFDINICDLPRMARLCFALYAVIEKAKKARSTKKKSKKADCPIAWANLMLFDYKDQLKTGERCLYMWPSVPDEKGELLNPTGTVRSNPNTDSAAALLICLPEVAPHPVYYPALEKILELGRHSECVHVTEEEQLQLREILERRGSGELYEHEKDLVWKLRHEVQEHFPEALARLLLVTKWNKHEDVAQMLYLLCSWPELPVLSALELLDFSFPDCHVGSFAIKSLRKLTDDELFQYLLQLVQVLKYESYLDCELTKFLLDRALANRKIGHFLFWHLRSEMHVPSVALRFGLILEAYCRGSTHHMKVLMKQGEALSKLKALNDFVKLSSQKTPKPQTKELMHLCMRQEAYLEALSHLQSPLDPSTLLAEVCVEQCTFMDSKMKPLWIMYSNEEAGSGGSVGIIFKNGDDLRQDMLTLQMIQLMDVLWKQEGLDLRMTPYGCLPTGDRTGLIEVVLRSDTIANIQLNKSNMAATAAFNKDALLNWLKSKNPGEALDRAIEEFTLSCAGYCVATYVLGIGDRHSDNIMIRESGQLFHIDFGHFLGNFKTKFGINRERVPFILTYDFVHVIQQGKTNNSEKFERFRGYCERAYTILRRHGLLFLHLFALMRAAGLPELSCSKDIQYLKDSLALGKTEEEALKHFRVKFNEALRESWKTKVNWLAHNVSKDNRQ
PI3Kδ (p110δ/p85α)(h), sequence (P27986 whole entry partner): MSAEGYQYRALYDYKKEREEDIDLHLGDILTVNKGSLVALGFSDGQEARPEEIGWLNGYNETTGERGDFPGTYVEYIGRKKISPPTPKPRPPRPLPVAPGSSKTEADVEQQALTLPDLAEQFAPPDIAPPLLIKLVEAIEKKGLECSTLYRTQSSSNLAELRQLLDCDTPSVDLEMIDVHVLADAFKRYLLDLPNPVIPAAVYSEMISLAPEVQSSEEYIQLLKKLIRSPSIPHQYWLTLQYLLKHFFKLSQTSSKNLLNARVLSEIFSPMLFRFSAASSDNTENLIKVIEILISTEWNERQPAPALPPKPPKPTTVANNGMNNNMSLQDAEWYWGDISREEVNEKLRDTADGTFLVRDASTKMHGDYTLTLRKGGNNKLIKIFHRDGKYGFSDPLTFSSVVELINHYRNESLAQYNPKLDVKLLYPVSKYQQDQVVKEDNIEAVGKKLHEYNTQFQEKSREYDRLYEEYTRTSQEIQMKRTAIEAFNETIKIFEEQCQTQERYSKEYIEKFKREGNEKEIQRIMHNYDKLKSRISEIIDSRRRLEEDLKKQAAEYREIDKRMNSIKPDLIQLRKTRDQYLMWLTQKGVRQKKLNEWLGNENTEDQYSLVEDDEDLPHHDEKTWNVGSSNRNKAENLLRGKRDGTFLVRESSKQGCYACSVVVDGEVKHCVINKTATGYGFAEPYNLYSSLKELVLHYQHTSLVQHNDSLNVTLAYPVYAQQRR
PI3Kγ (p120γ)(h), sequence (P48736 whole entry): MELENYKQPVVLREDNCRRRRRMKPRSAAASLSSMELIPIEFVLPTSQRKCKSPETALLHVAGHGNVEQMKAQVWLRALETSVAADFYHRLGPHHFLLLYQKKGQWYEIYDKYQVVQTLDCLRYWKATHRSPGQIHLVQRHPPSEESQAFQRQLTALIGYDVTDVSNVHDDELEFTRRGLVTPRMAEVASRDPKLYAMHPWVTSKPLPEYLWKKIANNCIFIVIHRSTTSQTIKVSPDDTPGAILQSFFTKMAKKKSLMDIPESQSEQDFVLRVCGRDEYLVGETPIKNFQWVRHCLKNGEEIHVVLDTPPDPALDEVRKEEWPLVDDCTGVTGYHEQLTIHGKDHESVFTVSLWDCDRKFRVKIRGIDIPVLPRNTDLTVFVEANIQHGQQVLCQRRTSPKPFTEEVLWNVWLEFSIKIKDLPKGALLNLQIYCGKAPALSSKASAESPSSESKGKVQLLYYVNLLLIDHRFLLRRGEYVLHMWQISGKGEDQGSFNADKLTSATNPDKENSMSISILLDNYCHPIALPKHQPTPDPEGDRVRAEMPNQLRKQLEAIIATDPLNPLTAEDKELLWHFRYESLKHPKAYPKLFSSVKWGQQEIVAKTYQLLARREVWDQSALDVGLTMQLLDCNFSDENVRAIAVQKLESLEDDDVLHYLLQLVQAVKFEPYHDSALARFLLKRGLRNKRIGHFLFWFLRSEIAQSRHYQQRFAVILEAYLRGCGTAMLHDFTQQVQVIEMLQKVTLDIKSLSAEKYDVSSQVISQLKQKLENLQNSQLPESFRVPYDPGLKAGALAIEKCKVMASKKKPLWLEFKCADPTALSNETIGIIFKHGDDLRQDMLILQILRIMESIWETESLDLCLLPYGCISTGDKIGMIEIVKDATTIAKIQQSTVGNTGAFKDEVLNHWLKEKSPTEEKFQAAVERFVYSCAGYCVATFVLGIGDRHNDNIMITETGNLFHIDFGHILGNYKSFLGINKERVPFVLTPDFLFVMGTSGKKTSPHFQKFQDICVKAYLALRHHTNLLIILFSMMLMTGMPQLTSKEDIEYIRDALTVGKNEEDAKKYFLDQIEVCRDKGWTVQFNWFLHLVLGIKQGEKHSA
PI3Kα (p110α/p85α)(h), sequence (P42336 whole entry): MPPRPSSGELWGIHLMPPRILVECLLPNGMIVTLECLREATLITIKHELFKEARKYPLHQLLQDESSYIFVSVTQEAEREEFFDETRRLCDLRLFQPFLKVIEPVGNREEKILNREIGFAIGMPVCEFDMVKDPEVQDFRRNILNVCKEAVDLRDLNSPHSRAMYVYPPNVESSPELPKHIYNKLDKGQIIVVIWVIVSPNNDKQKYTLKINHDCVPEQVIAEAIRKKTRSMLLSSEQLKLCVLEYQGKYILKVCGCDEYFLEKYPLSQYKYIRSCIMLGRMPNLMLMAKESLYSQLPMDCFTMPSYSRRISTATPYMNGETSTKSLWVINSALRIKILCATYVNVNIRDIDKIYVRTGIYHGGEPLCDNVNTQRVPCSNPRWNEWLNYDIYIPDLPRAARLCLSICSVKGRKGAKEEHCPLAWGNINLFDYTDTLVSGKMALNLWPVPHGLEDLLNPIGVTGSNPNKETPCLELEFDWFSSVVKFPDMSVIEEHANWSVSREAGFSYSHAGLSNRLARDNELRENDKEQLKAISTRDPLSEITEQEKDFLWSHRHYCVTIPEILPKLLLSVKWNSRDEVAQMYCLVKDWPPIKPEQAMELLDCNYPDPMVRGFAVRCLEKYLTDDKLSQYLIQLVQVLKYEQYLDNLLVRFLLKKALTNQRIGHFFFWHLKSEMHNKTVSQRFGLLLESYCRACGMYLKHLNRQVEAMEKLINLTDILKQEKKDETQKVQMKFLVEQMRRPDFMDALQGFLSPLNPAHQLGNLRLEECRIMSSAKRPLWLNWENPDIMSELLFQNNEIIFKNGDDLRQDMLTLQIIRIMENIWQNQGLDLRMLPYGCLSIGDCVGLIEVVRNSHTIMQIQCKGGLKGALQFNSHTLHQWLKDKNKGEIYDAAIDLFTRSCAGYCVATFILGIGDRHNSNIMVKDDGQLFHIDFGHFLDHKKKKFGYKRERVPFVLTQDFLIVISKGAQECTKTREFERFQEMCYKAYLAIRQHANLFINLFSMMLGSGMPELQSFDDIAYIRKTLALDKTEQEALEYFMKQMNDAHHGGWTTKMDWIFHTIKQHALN
PI3Kα (p110α/p85α)(h), sequence (P27986 whole entry partner): as the sequence (P27986 whole entry partner) above
PI3K β (p110β/p85α)(h), sequence (P42338 whole entry): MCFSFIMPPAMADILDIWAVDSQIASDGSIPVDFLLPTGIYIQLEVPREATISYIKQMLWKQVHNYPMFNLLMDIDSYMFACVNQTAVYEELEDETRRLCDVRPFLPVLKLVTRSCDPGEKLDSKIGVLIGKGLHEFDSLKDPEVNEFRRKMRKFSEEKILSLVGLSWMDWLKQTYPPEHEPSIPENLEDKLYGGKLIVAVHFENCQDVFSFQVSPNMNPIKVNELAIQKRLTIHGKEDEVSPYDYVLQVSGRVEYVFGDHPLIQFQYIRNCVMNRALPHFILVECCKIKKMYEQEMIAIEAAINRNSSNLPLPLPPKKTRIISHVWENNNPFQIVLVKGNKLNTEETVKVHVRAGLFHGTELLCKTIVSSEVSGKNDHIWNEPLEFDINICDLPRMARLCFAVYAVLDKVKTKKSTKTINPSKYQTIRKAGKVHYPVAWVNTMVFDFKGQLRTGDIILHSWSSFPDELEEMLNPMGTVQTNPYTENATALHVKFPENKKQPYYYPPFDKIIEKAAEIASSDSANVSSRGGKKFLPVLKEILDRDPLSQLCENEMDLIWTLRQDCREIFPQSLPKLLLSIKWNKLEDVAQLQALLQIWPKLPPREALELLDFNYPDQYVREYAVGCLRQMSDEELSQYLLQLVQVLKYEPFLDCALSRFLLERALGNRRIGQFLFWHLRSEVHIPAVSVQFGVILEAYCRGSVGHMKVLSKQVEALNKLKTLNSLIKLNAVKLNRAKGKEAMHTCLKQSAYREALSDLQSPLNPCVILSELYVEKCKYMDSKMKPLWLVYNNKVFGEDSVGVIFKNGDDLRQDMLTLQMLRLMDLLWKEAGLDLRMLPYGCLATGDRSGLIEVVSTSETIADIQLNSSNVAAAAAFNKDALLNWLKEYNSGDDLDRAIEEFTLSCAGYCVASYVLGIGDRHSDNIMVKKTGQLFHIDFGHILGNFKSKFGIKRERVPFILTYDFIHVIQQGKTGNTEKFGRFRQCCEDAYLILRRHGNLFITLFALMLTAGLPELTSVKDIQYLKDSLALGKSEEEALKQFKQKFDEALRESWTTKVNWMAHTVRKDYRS
PI3K β (p110β/p85α)(h), sequence (P27986 whole entry partner): as the sequence (P27986 whole entry partner) above

What is called IC50 is the concentration that gives 50% inhibition. Low values mean inhibition by little substance, high ones a need for much substance. In the case of `COc1c(C)cc(-c2cncc3cc(/C=C4\SC(=S)NC4=O)oc23)cc1C` [Example 196, (Z)-5-[7-(4-Methoxy-3,5-dimethylphenyl)furo[3,2-c]pyridin-2-ylmethylene]-2-thioxothiazolidin-4-one], the 50% inhibitory concentration (IC50) is > 10000 nM against PI3Kδ (p110δ/p85α)(h), 7 nM against PI3Kγ (p120γ)(h), 10 nM against PI3Kα (p110α/p85α)(h) and > 10000 nM against PI3K β (p110β/p85α)(h).

Regarding `Cc1cc(-c2cncc3cc(/C=C4\SC(=S)NC4=O)oc23)cc(C)c1OC(C)C` [Example 197, (Z)-5-[{7-(4-Isopropoxy-3,5-dimethylphenyl)furo[3,2-c]pyridin-2-yl}methylene]-2-thioxothiazolidin-4-one], the IC50 at PI3Kδ (p110δ/p85α)(h) is > 10000 nM; at PI3Kγ (p120γ)(h) it was 5 nM; at PI3Kα (p110α/p85α)(h) it was 121 nM; against PI3K β (p110β/p85α)(h), > 10000 nM.

For `COc1cc(-c2cncc3cc(/C=C4\SC(=S)NC4=O)oc23)cc(Cl)c1O` [Example 217, (Z)-5-[{7-(3-Chloro-4-hydroxy-5-methoxyphenyl)furo[3,2-c]pyridin-2-yl}-methylene]-2-thioxothiazolidin-4-one], the IC50 is 563 nM against PI3Kδ (p110δ/p85α)(h), 3 nM against PI3Kγ (p120γ)(h), 1 nM against PI3Kα (p110α/p85α)(h) and 77 nM on PI3K β (p110β/p85α)(h).

Regarding `COc1ncc(-c2cncc3cc(/C=C4\SC(=S)NC4=O)oc23)cc1C` [Example 225, (Z)-5-[{7-(6-Methoxy-5-methylpyridin-3-yl)furo[3,2-c]pyridin-2-yl}methylene]-2-thioxothiazolidin-4-one], the IC50 at PI3Kδ (p110δ/p85α)(h) was > 10000 nM; on PI3Kγ (p120γ)(h), 43 nM; at PI3Kα (p110α/p85α)(h) it was 4 nM; at PI3K β (p110β/p85α)(h), > 10000 nM.

As to `O=C1NC(=O)/C(=C/c2cc3cncc(-c4ccc(S(=O)(=O)N5CCCCC5)cc4)c3o2)S1` [Example 262, (Z)-5-([7-{4-(Piperidin-1-ylsulfonyl)phenyl}furo[3,2-c]pyridin-2-yl]methylene)thiazolidine-2,4-dione], the IC50 was > 10000 nM against PI3Kδ (p110δ/p85α)(h), 38 nM on PI3Kγ (p120γ)(h), 33 nM at PI3Kα (p110α/p85α)(h) and > 10000 nM on PI3K β (p110β/p85α)(h).

Turning to `O=C1NC(=O)/C(=C/c2cc3cncc(-c4ccc(S(=O)(=O)NCCO)cc4)c3o2)S1` [Example 263, (Z)-4-[2-{(2,4-Dioxothiazolidin-5-ylidene)methyl}furo[3,2-c]pyridin-7-yl]-N-(2-hydroxyethyl)benzenesulfonamide], the IC50 at PI3Kδ (p110δ/p85α)(h) was found to be 2500 nM; against PI3Kγ (p120γ)(h), 28 nM; against PI3Kα (p110α/p85α)(h), 16 nM; on PI3K β (p110β/p85α)(h), 1400 nM.

For `CNS(=O)(=O)c1ccc(-c2cncc3cc(/C=C4\SC(=O)NC4=O)oc23)cc1F` [Example 279, (Z)-4-[2-{(2,4-Dioxothiazolidin-5-ylidene)methyl}furo[3,2-c]pyridin-7-yl]-2-fluoro-N-methylbenzenesulfonamide], the 50% inhibitory concentration (IC50) against PI3Kδ (p110δ/p85α)(h) stood at 747 nM; against PI3Kγ (p120γ)(h) it was 17 nM; against PI3Kα (p110α/p85α)(h) it was 40 nM; at PI3K β (p110β/p85α)(h), 480 nM.

For the compound `CN(C)S(=O)(=O)c1ccc(-c2cncc3cc(/C=C4\SC(=O)NC4=O)oc23)cc1F` [Example 280, (Z)-4-[2-{(2,4-Dioxothiazolidin-5-ylidene)methyl}furo[3,2-c]pyridin-7-yl]-2-fluoro-N,N-dimethylbenzenesulfonamide], the IC50 stood at 3000 nM against PI3Kδ (p110δ/p85α)(h), 22 nM against PI3Kγ (p120γ)(h), 46 nM on PI3Kα (p110α/p85α)(h) and 1110 nM on PI3K β (p110β/p85α)(h).

Turning to `Cc1cc(-c2cncc3cc(/C=C4\SC(=O)NC4=O)oc23)ccc1S(=O)(=O)N1CCOCC1` [Example 307, (Z)-5-([7-{3-Methyl-4-(morpholinosulfonyl)phenyl}furo[3,2-c]pyridin-2-yl]methylene)thiazolidine-2,4-dione], the IC50 against PI3Kδ (p110δ/p85α)(h) was found to be 52 nM; at PI3Kγ (p120γ)(h), 15 nM; on PI3Kα (p110α/p85α)(h) it was 14 nM; against PI3K β (p110β/p85α)(h) it was 1940 nM.

For the compound `Cc1cc(-c2cncc3cc(/C=C4\SC(=O)NC4=O)oc23)ccc1S(=O)(=O)NC(C)(C)C` [Example 310, (Z)—N-tert-Butyl-4-[2-{(2,4-dioxothiazolidin-5-ylidene)methyl}furo[3,2-c]pyridin-7-yl]-2-methylbenzenesulfonamide], the IC50 at PI3Kδ (p110δ/p85α)(h) came out at 220 nM; at PI3Kγ (p120γ)(h), 12 nM; against PI3Kα (p110α/p85α)(h) it was 11 nM; on PI3K β (p110β/p85α)(h) it was 1940 nM.

As to `COc1ncc(-c2cncc3cc(/C=C4\SC(=S)NC4=O)oc23)cc1C#N` [Example 328, (Z)-2-Methoxy-5-[2-{(4-oxo-2-thioxothiazolidin-5-ylidene)methyl}furo[3,2-c]pyridin-7-yl]nicotinonitrile], the IC50 at PI3Kδ (p110δ/p85α)(h) is > 10000 nM; against PI3Kγ (p120γ)(h), 56 nM; against PI3Kα (p110α/p85α)(h), 15 nM; against PI3K β (p110β/p85α)(h) it was 630 nM.

Consider `CN(C)S(=O)(=O)c1ccc(-c2cncc3cc(/C=C4\SC(=S)NC4=O)oc23)cc1F` [Example 330, (Z)-2-Fluoro-N,N-dimethyl-4-[2-{(4-oxo-2-thioxothiazolidin-5-ylidene)methyl}furo[3,2-c]pyridin-7-yl]benzenesulfonamide], for which the IC50 was > 10000 nM on PI3Kδ (p110δ/p85α)(h), 12 nM at PI3Kγ (p120γ)(h), 24 nM on PI3Kα (p110α/p85α)(h) and > 10000 nM against PI3K β (p110β/p85α)(h).

On to `CS(=O)(=O)c1c(F)cc(-c2cncc3cc(/C=C4\SC(=S)NC4=O)oc23)cc1F` [Example 332, (Z)-5-([7-{3,5-Difluoro-4-(methylsulfonyl)phenyl}furo[3,2-c]pyridin-2-yl]methylene)-2-thioxothiazolidin-4-one], for which the IC50 on PI3Kδ (p110δ/p85α)(h) was 9300 nM; against PI3Kγ (p120γ)(h) it was 19 nM; against PI3Kα (p110α/p85α)(h), 10 nM; at PI3K β (p110β/p85α)(h) it was > 10000 nM.
